According to US20260199323A1, “LIGAND COMPOUNDS FOR E3 UBIQUITIN LIGASE, PROTEIN DEGRADERS DEVELOPED ON BASIS OF LIGAND COMPOUNDS, AND USES THEREOF” (GLUETACS THERAPEUTICS (SHANGHAI) CO., LTD., priority 2021, published 2026):
Like-named read-outs stand apart in the source and are kept apart here.

Columns and labels:
[1] = tested on: CCRF-CEM; test: CCK-8 tumor cell proliferation, CCRF-CEM; format: cell-based, Human; settings: Homo sapiens, CCRF-CEM, read-out: IC50 inhibiting proliferation of tumor cells, CCRF-CEM
Outline: (§1)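 Cell viability (CCK-8) after compound exposure; IC50 calculated. Cells seeded, treated after 24 h, maximum dose 10 μM, 5-fold serial dilutions over 10 concentrations.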

[2] = tested on: HCC827; test: CCK-8 tumor cell proliferation, HCC827; format: cell-based, Human; settings: for IC50: Homo sapiens, HCC827, read-out: IC50 inhibiting proliferation of tumor cells, HCC827; for IC50 for inhibiting the proliferation of tumor cells, HCC827: Table 11, designed based on EGFR inhibitors, 96 h
Protocol: The tumor cells used herein were cultured in a cell culture medium listed in table 4 at 37° C. in an incubator with 5% CO2.
(§2) After 24 h, 100 μL of the inoculated cells were treated with 0.5 μL of the compounds of the present disclosure (including the compounds in Tables 1 and 3, and compounds of examples) at 10 different successively decreasing concentrations (starting at the highest concentration of 10 μM; 5-fold serial dilutions). After the cells were treated with the compounds of the present disclosure for a period of time, the cell viability detection reagent was added to the culture medium for cell viability assessment according to the instructions provided with the CCK-8 kit. […] The growth inhibition of the compounds of the present disclosure on cells was plotted by Prism Graphpad software, and the IC50 values of the compounds of the present disclosure were calculated therefrom.

[3] = tested on: MDA-MB-231; test: CCK-8 tumor cell proliferation, MDA-MB-231; format: cell-based, Human; settings: Homo sapiens, MDA-MB-231, read-out: IC50 inhibiting proliferation of tumor cells, MDA-MB-231
Outline: as §1

[4] = tested on: MM.1S; test: CCK-8 tumor cell proliferation, MM.1S; format: cell-based; settings: Homo sapiens, MM1.S, MM.1S, read-out: IC50 inhibiting proliferation of tumor cells, MM.1S
Outline: as §1

[5] = tested on: SR; test: CCK-8 tumor cell proliferation, SR; format: cell-based, Human; settings: Homo sapiens, SR, read-out: IC50 inhibiting proliferation of tumor cells, SR
Outline: as §1

[6] = tested on: MM.1R; test: CCK-8 tumor cell proliferation, MM.1R; format: cell-based; settings: read-out: IC50 inhibiting proliferation of tumor cells, MM.1R
Outline: as §1

[7] = tested on: LNcap; test: CCK-8 tumor cell proliferation, LNcap; format: cell-based, Human; settings: Homo sapiens
Protocol: (§3) The tumor cells used herein were cultured in a cell culture medium listed in table 4 at 37° C. in an incubator with 5% CO2. Prior to experimentation, all cells used were correctly identified by STR profiling, and tested negative for mycoplasma through routine screenings.
as §2, with “IC50 values of the compounds of the present disclosure (including the compounds in Tables 1 and 3, and compounds of examples) were measured using the Meilun Cell Counting Kit-8 kit from Dalian Meilun Biotech Co., Ltd. Assay details are as follows: tumor cells were seeded in a 96-well plate at a density listed in Table 5. After 24” for “After 24”

[8] = tested on: Hep3B2.7-1; test: CCK-8 tumor cell proliferation, Hep3B2.7-1; format: cell-based, Human; settings: Homo sapiens; Table 19, IRAK4 inhibitor based; Hep3B2.7-1; read-out: IC50 inhibiting proliferation of tumor cells, Hep3B2.7-1
Protocol: as §3
as §2, with “IC50 values of the compounds of the present disclosure (including the compounds in Tables 1 and 3, and compounds of examples) were measured using the Meilun Cell Counting Kit-8 kit from Dalian Meilun Biotech Co., Ltd. Assay details are as follows: tumor cells were seeded in a 96-well plate at a density listed in Table 5. After 24” for “After 24”

[9] = tested on: Kasumi-1; test: CCK-8 tumor cell proliferation, Kasumi-1; format: cell-based, Human; settings: Homo sapiens; Table 19, IRAK4 inhibitor based; Kasumi-1; read-out: IC50 inhibiting proliferation of tumor cells, Kasumi-1
Protocol: as §3
as §2, with “IC50 values of the compounds of the present disclosure (including the compounds in Tables 1 and 3, and compounds of examples) were measured using the Meilun Cell Counting Kit-8 kit from Dalian Meilun Biotech Co., Ltd. Assay details are as follows: tumor cells were seeded in a 96-well plate at a density listed in Table 5. After 24” for “After 24”

[10] = tested on: Jurkat; test: CCK-8 tumor cell proliferation, Jurkat; format: cell-based, Human; settings: Homo sapiens, Table 19, IRAK4 inhibitor based, read-out: IC50 inhibiting proliferation of tumor cells, Jurkat
Outline: as §1

[11] = tested on: PC-9; test: CCK-8 tumor cell proliferation, PC-9; format: cell-based, Human; settings: Homo sapiens; Table 15, ALK inhibitor based; PC-9; read-out: IC50 inhibiting proliferation of tumor cells, PC-9
[12] = tested on: SU-DHL-4; test: CCK-8 tumor cell proliferation, SU-DHL-4; format: cell-based, Human; settings: Homo sapiens, Table 19, IRAK4 inhibitor based, read-out: IC50 inhibiting proliferation of tumor cells, SU-DHL-4
Protocol: as §3
as §2, with “IC50 values of the compounds of the present disclosure (including the compounds in Tables 1 and 3, and compounds of examples) were measured using the Meilun Cell Counting Kit-8 kit from Dalian Meilun Biotech Co., Ltd. Assay details are as follows: tumor cells were seeded in a 96-well plate at a density listed in Table 5. After 24” for “After 24”

[13] = tested on: Mino; test: CCK-8 tumor cell proliferation, Mino; format: cell-based, Human; settings: Homo sapiens, Mino, read-out: IC50 inhibiting proliferation of tumor cells, Mino
Outline: as §1

[14] = tested on: MV-4-11; test: CCK-8 tumor cell proliferation, MV-4-11; format: cell-based, Human; settings: Homo sapiens, MV4-11; Table 19, IRAK4 inhibitor based; MV-4-11; read-out: IC50 inhibiting proliferation of tumor cells, MV-4-11
Protocol: as §3
as §2, with “IC50 values of the compounds of the present disclosure (including the compounds in Tables 1 and 3, and compounds of examples) were measured using the Meilun Cell Counting Kit-8 kit from Dalian Meilun Biotech Co., Ltd. Assay details are as follows: tumor cells were seeded in a 96-well plate at a density listed in Table 5. After 24” for “After 24”

[15] = tested on: SW620; test: CCK-8 tumor cell proliferation, SW620; format: cell-based, Human; settings: Homo sapiens, SW-620; Table 19, IRAK4 inhibitor based; SW620; read-out: IC50 inhibiting proliferation of tumor cells, SW620
Outline: as §1

[16] = Table 20, BCL-2 inhibitor based
[17] = Table 20, BCL-2 inhibitor based, LNcap, read-out: IC50 inhibiting proliferation of tumor cells, LNcap
[18] = Table 19, IRAK4 inhibitor based

CC1(C)CCC(c2ccc(Cl)cc2)=C(CN2CCN(c3ccc(C(=O)NS(=O)(=O)c4ccc(N[C@H](CCN5CCN(Cc6cc(F)c7c(c6)CN(C6CCC(=O)NC6=O)C7=O)CC5)CSc5ccccc5)c(S(=O)(=O)C(F)(F)F)c4)cc3)CC2)C1 (stereo partly drawn) [GT-03479, 4-(4-((4′-chloro-4,4-dimethyl-3,4,5,6-tetrahydro-[1,1′-biphenyl]-2-yl)methyl)piperazin-1-yl)-N-((4-(((2R)-4-(4-((2-(2,6-dioxopiperidin-3-yl)-7-fluoro-1-oxoisoindolin-5-yl)methyl)piperazin-1-yl)-1-(phenylthio)butan-2-yl)amino)-3-((trifluoromethyl)sulfonyl)phenyl)sulfonyl)benzamide]
IC50 [1, 16]: < 50 nM | IC50 [2, 16]: 100 to 500 nM | IC50 [3, 16]: < 50 nM | IC50 [4, 16]: < 50 nM | IC50 [5, 16]: < 50 nM | IC50 [6, 16]: < 50 nM | IC50 [7, 17]: < 50 nM

COc1cc2ncnc(Nc3cccc(Cl)c3F)c2cc1OCc1ccc2c(c1)CN(C1CCC(=O)NC1=O)C2=O (stereo not shown) [GT-03325, 3-(5-(((4-((3-chloro-2-fluorophenyl)amino)-7-methoxyquinazolin-6-yl)oxy)methyl)-1-oxoisoindolin-2-yl)piperidine-2,6-dione]
IC50 for inhibiting the proliferation of tumor cells, HCC827 [2]: A+

O=C1CCC(N2Cc3c(CN4CCN(c5ccc(-n6cc(NC(=O)c7coc(-c8ccnc(NCC(F)(F)F)c8)n7)c(C(F)F)n6)cc5)CC4)cccc3C2=O)C(=O)N1 (stereo not shown) [GT-04271, N-(3-(difluoromethyl)-1-(4-(4-((2-(2,6-dioxopiperidin-3-yl)-1-oxoisoindolin-4-yl)methyl)piperazin-1-yl)phenyl)-1H-pyrazol-4-yl)-2-(2-((2,2,2-trifluoroethyl)amino)pyridin-4-yl)oxazole-4-carboxamide]
IC50 [1, 18]: < 50 nM | IC50 [8]: < 50 nM | IC50 [9]: < 50 nM | IC50 [6, 18]: < 50 nM | IC50 ([7]; Table 19, IRAK4 inhibitor based, Lncap, read-out: IC50 inhibiting proliferation of tumor cells, Lncap): 50 to 100 nM | IC50 [10]: < 50 nM

CCc1cc2c(cc1N1CCC(N(C)Cc3ccc4c(c3)CN(C3CCC(=O)NC3=O)C4=O)CC1)C(C)(C)c1[nH]c3cc(C#N)ccc3c1C2=O (stereo not shown) [GT-03474, 8-(4-(((2-(2,6-dioxopiperidin-3-yl)-1-oxoisoindolin-5-yl)methyl)(methyl)amino)piperidin-1-yl)-9-ethyl-6,6-dimethyl-11-oxo-6,11-dihydro-5H-benzo[b]carbazole-3-carbonitrile]
IC50 ([2]; Table 15, ALK inhibitor based): 1000 to 5000 nM | IC50 ([3]; Table 15, ALK inhibitor based): 1000 to 5000 nM | IC50 ([5]; Table 15, ALK inhibitor based): < 50 nM | IC50 [11]: 500 to 1000 nM

CC1(C)CCC(c2ccc(Cl)cc2)=C(CN2CCN(c3ccc(C(=O)NS(=O)(=O)c4ccc(N[C@H](CCN5CCN(Cc6ccc7c(c6F)CN(C6CCC(=O)NC6=O)C7=O)CC5)CSc5ccccc5)c(S(=O)(=O)C(F)(F)F)c4)cc3)CC2)C1 (stereo partly drawn) [GT-03478, 4-(4-((4′-chloro-4,4-dimethyl-3,4,5,6-tetrahydro-[1,1′-biphenyl]-2-yl)methyl)piperazin-1-yl)-N-((4-(((2R)-4-(4-((2-(2,6-dioxopiperidin-3-yl)-4-fluoro-1-oxoisoindolin-5-yl)methyl)piperazin-1-yl)-1-(phenylthio)butan-2-yl)amino)-3-((trifluoromethyl)sulfonyl)phenyl)sulfonyl)benzamide]
IC50 [1, 16]: < 50 nM | IC50 [2, 16]: < 50 nM | IC50 [3, 16]: < 50 nM | IC50 [4, 16]: < 50 nM | IC50 [5, 16]: < 50 nM | IC50 [6, 16]: < 50 nM | IC50 [7, 17]: < 50 nM

O=C1CCC(N2Cc3cc(CN4CCC(n5cc(NC(=O)c6cnn7ccc(N8CCOCC8)nc67)c(C(F)F)n5)CC4)cc(F)c3C2=O)C(=O)N1 (stereo not shown) [GT-03812, N-(3-(difluoromethyl)-1-(1-((2-(2,6-dioxopiperidin-3-yl)-7-fluoro-1-oxoisoindolin-5-yl)methyl)piperidin-4-yl)-1H-pyrazol-4-yl)-5-morpholinopyrazolo[1,5-a]pyrimidine-3-carboxamide]
IC50 [12]: 1000 to 5000 nM | IC50 [13, 18]: 100 to 500 nM | IC50 [14]: 100 to 500 nM | IC50 [15]: 1000 to 5000 nM

O=C1CCC(N2C(=O)c3ccc(CN4CCC(n5cc(NC(=O)c6cnn7ccc(N8CCOCC8)nc67)c(C(F)F)n5)CC4)cc3C2=O)C(=O)N1 (stereo not shown) [GT-03815, N-(3-(difluoromethyl)-1-(1-((2-(2,6-dioxopiperidin-3-yl)-1,3-dioxoisoindolin-5-yl)methyl)piperidin-4-yl)-1H-pyrazol-4-yl)-5-morpholinopyrazolo[1,5-a]pyrimidine-3-carboxamide]
IC50 [12]: 5000 to 10000 nM | IC50 [13, 18]: 1000 to 5000 nM

CC1(C)CCC(CN2CCN(c3ccc(C(=O)NS(=O)(=O)c4ccc(NCC5CCOCC5)c([N+](=O)[O-])c4)c(Oc4cnc5[nH]ccc5c4)c3)CC2)=C(c2ccc(Cl)cc2)C1 [ABT-199, Venetoclax, reference compound]
IC50 ([1]; Table 20, given as number): > 10000 nM | IC50 [2, 16]: 5000 to 10000 nM | IC50 [3, 16]: 1000 to 5000 nM | IC50 ([4]; Table 20, given as number): > 10000 nM | IC50 [5, 16]: 500 to 1000 nM | IC50 [7, 17]: 1000 to 5000 nM

COc1cc(N2CCC(N(C)Cc3cc4c(cc3F)C(=O)N(C3CCC(=O)NC3=O)C4)CC2)ccc1Nc1ncc(Cl)c(Nc2ccccc2P(C)(C)=O)n1 (stereo not shown) [GT-03601, 3-(5-(((1-(4-((5-chloro-4-((2-(dimethylphosphoryl)phenyl)amino)pyrimidin-2-yl)amino)-3-methoxyphenyl)piperidin-4-yl)(methyl)amino)methyl)-6-fluoro-1-oxoisoindolin-2-yl)piperidine-2,6-dione]
IC50 ([2]; Table 15, ALK inhibitor based): 100 to 500 nM | IC50 ([3]; Table 15, ALK inhibitor based): 100 to 500 nM | IC50 ([5]; Table 15, ALK inhibitor based): < 50 nM | IC50 ([13]; Table 15, ALK inhibitor based): 5000 to 10000 nM | IC50 [11]: 100 to 500 nM

C=CC(=O)Nc1cc(Nc2nccc(-c3cn(C)c4ccccc34)n2)c(OC)cc1N(C)CCN(C)C [osimertinib, Osimertinib, reference compound]
IC50 for inhibiting the proliferation of tumor cells, HCC827 [2]: A+
